Results: PubChem BioAssay (NCI)
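Interpolation was linear, between the two tested concentrations surrounding the appropriate level; five concentrations were tested over 48 hours in 96-well plates. TGI is the concentration that stops growth completely.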

What was measured:
Assay in all cases: NCI tumour cell line growth inhibition, 48 h
HT29 colon = tested on: HT29 colon
U251 CNS = tested on: U251 CNS
M14 melanoma = tested on: M14 melanoma
MDA-MB-435 = tested on: MDA-MB-435
MCF7 breast = tested on: MCF7 breast
HCC-2998 colon = tested on: HCC-2998 colon
SK-OV-3 ovarian = tested on: SK-OV-3 ovarian
SF-295 CNS = tested on: SF-295 CNS
SF-539 CNS = tested on: SF-539 CNS
CAKI-1 renal = tested on: CAKI-1 renal
KM12 colon = tested on: KM12 colon
PC-3 prostate = tested on: PC-3 prostate
SR leukemia = tested on: SR leukemia
TK-10 renal = tested on: TK-10 renal
SK-MEL-28 melanoma = tested on: SK-MEL-28 melanoma
HCT-116 colon = tested on: HCT-116 colon
UACC-62 melanoma = tested on: UACC-62 melanoma
IGROV1 ovarian = tested on: IGROV1 ovarian
CCRF-CEM leukemia = tested on: CCRF-CEM leukemia
BT-549 breast = tested on: BT-549 breast
T-47D breast = tested on: T-47D breast
UO-31 renal = tested on: UO-31 renal
RXF 393 renal = tested on: RXF 393 renal
MDA-MB-231 breast = tested on: MDA-MB-231 breast
SF-268 CNS = tested on: SF-268 CNS
OVCAR-8 ovarian = tested on: OVCAR-8 ovarian
NCI-H460 lung = tested on: NCI-H460 lung
NCI-H23 lung = tested on: NCI-H23 lung
ACHN renal = tested on: ACHN renal
OVCAR-4 ovarian = tested on: OVCAR-4 ovarian
K-562 leukemia = tested on: K-562 leukemia
786-0 renal = tested on: 786-0 renal
COLO 205 colon = tested on: COLO 205 colon
HCT-15 colon = tested on: HCT-15 colon
SK-MEL-5 melanoma = tested on: SK-MEL-5 melanoma
NCI-H226 lung = tested on: NCI-H226 lung
A498 renal = tested on: A498 renal
DU-145 prostate = tested on: DU-145 prostate
HOP-92 NSCLC = tested on: HOP-92 NSCLC
NCI/ADR-RES ovarian = tested on: NCI/ADR-RES ovarian
SK-MEL-2 melanoma = tested on: SK-MEL-2 melanoma
SNB-75 CNS = tested on: SNB-75 CNS
LOX IMVI melanoma = tested on: LOX IMVI melanoma
HOP-62 NSCLC = tested on: HOP-62 NSCLC
SW-620 colon = tested on: SW-620 colon
EKVX NSCLC = tested on: EKVX NSCLC
MOLT-4 leukemia = tested on: MOLT-4 leukemia
SNB-19 CNS = tested on: SNB-19 CNS
HS 578T breast = tested on: HS 578T breast
HL-60(TB) leukemia = tested on: HL-60(TB) leukemia
UACC-257 melanoma = tested on: UACC-257 melanoma

Measured: TGI

O=c1[nH]c2cc(F)c(F)cc2nc1Cc1ccccc1
> 100 µM: HT29 colon | U251 CNS | M14 melanoma | MDA-MB-435 | MCF7 breast | HCC-2998 colon | SK-OV-3 ovarian | SF-295 CNS | SF-539 CNS | CAKI-1 renal | KM12 colon | PC-3 prostate | SR leukemia | TK-10 renal | SK-MEL-28 melanoma | HCT-116 colon | UACC-62 melanoma | IGROV1 ovarian | CCRF-CEM leukemia | BT-549 breast | T-47D breast | UO-31 renal | RXF 393 renal | MDA-MB-231 breast | SF-268 CNS | OVCAR-8 ovarian | NCI-H460 lung | NCI-H23 lung | ACHN renal | OVCAR-4 ovarian | K-562 leukemia | 786-0 renal | COLO 205 colon | HCT-15 colon | SK-MEL-5 melanoma | NCI-H226 lung | A498 renal | DU-145 prostate | HOP-92 NSCLC | NCI/ADR-RES ovarian | SK-MEL-2 melanoma | SNB-75 CNS | LOX IMVI melanoma | HOP-62 NSCLC | SW-620 colon | EKVX NSCLC | MOLT-4 leukemia | SNB-19 CNS | HS 578T breast | HL-60(TB) leukemia | UACC-257 melanoma
